From PMC5787466, “Accelerated bottom-up drug design platform enables the discovery of novel stearoyl-CoA desaturase 1 inhibitors for cancer therapy” (Oncotarget, 2017)

Assays:
ACHN = assay: Proliferation dose-response IC50, ACHN; format: cell-based; conditions: Homo sapiens, proliferative IC50, linear regression modeling of dose-response
Protocol: (§1) Error bars indicate standard deviation for n=2 replicates. […] To evaluate inhibition of SCD1 by these molecules, we used LC/MS to quantify changes in SCD1-catalyzed conversion of stearoyl-CoA to oleoyl-CoA in response to drug treatments in vitro using SCD1 protein extracted from murine liver (Figure 3c, Supplementary Figure 2g). […] Synthesis routes and spectral data including NMR and MS are also provided (Supplementary Figures 3-6).
Cells were seeded at 5,000 cells/well in clear-bottom 96-well plates in triplicate. Drug treatment was applied at 1:1000 in reduced serum conditions (3%). […] Alternatively, cells were plated 2x10^5/well in 12-well plates (Genesee Scientific) in triplicate prior to drug treatment. After 120-hour treatment, cell number was established using a Coulter Particle Counter (Beckman). Oleic acid-albumin (Sigma Aldrich) was added to media at 5µM, and was applied adjuvant to drug treatment. Drug stocks were prepared in DMSO (Sigma) at 1000x. IC50 dosing per cell line was calculated using CalcuSyn analytical software.

[1] = molecular target: T1, SCD1 protein extracted from murine liver (Mus musculus, UniProt P13516); assay: In vitro SCD1 enzymatic inhibition by LC/MS (stearoyl-CoA to oleoyl-CoA, liver microsomes); format: biochemical; conditions: n=2
T1 construct: Microsomes were isolated from murine liver using Microsome Isolation Kit (BioVision); from tissue; host or cells: murine liver microsomes
T1 sequence (P13516 1-355): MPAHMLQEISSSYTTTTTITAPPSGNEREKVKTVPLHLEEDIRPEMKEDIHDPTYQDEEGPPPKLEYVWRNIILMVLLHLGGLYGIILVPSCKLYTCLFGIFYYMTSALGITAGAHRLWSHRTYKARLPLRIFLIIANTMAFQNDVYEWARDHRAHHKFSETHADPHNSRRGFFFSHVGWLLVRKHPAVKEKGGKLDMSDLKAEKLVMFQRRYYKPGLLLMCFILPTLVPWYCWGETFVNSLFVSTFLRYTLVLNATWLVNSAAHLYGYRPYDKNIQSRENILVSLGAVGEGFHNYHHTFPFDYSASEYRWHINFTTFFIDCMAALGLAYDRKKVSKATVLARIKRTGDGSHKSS
Excerpt: as §1, with “After synthesis feasibility and cost analysis, we synthesized 38 of the selected compounds.” for “Error bars indicate standard deviation for n=2 replicates.”
Microsomes were isolated from murine liver using Microsome Isolation Kit (BioVision) per the manufacturer protocol. […] To quantify biotransformation of ^13C18-stearoyl CoA to ^13C18-oleoyl CoA for drug treatments relative to vehicle controls, supernatants were evaluated using the LC/MS^2 acyl CoA quantitation method of Magnes et al. and adapting selected reaction monitoring (SRM) for isotope-labeled acyl CoAs. […] SRM signal areas for isotope-labeled acyl CoAs were measured relative to the heptadecanoyl CoA I.S. using XCalibur software (Thermo), and percent enzyme inhibition determined by comparing ^13C18-oleoyl CoA quantities between treatment and DMSO control assays. […]

CNC(=O)c1ccnc(NC(=O)N2CCC(Oc3ccccc3Cl)CC2)c1 [SSI-4]
IC50 (ACHN): 0.003 µM
IC50 [1]: 1.9 nM
